Assay [1] deals with Wnt pathway (Sp5-Luc reporter, TCF/LEF binding sites) in SW480 colon carcinoma cells. The assay can be described thus: Screening assay for Wnt activity: Sp5-Luc reporter gene assay.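 For all read-outs here: firefly luciferase luminescence read in stably transduced SW480 cells carrying the Sp5 promoter reporter with eight TCF/LEF sites, compounds given in 0.1% DMSO final.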 The class given is cell-based, human. Particulars: Homo sapiens; for pEC50: Sp5-Luc reporter, SW480 cells, 36 to 48 hours. Background: A reporter such as luciferase makes a cellular process visible.
Experimental: The screening assay for Wnt activity is described as follows.
Following incubation, 15 μl of BriteLite Plus luminescence reagent (Perkin Elmer) was added to each well of the 384-well assay plates. The plates were placed on an orbital shaker for 2 min and then luminescence was quantified using the Envision (Perkin Elmer) plate reader.

For assay [2], the target named is recombinant DYRK1A kinase (Homo sapiens (Human), UniProt Q13627). The assay can be described thus: DYRK1A kinase assay (Ser/Thr 18 peptide Z-lyte FRET).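 Note: Read-out is the coumarin to fluorescein emission ratio, referenced to unphosphorylated (0%) and phosphorylated (100%) Ser/Thr 18 peptide controls, values from dose-response curves by non-linear regression.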 The class given is biochemical. Conditions: 30 μM ATP, 1 h room temperature.
Assay [3] addresses recombinant GSK3β kinase (Homo sapiens (Human), UniProt P49841). The assay can be described thus: GSK3β kinase assay (Ser/Thr 09 peptide Z-lyte FRET).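 Note: kinase activity read as coumarin to fluorescein emission ratio, 11-point threefold dilutions from 10 µM to 0.0003 µM in duplicate, unphosphorylated and phosphorylated peptide as 0% and 100% controls.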 Particulars: 46 μM ATP, 1 h room temperature. The assay is classed as biochemical.
Assay [4] has as its system Tau phosphorylation at Ser396 (pSer396). The assay can be described thus: Tau phosphorylation assay (pSer396 ELISA / western blot) in SH-SY5Y cells.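 Note: EC50 for reduction of Tau pSer396 in lysed cells, measured by colorimetric ELISA or chemiluminescent western blot, both using the same pSer396 antibody.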 The class given is cell-based, human. Particulars: Homo sapiens, read-out: pSer396 Tau EC50. (In general: In an ELISA, binding on a coated surface is turned into a signal by an enzyme label.)
The test system of assay [5] is SW480 colon carcinoma cells. The assay can be described thus: Cell viability assay (CellTiter-Glo). The class given is cell-based, human. Particulars: Homo sapiens; for pEC50: 96 h, SW480 cells, CellTiter-Glo, four days incubation; for inhibition at 10 µM: SW480, read-out: percent inhibition at 10 μM. (In general: ATP-based viability assays read luminescence as a measure of living cells.)

Assay [6] deals with α-smooth muscle actin (αSMA) positive LL29 cells. Description: Inhibition of fibrotic process: αSMA in TGF-β1 treated primary human fibroblasts from IPF patients.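 For all read-outs here: controls were TGF-β1 stimulated wells with DMSO vehicle (positive) and cells given DMSO alone (negative), cultured in F12 medium with 1% fetal bovine serum.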 Particulars: Homo sapiens, Fibroblast; for pEC50: 96 h, Table 8, LL29 fibroblasts from IPF patients, TGF-β1 20 ng/mL, 4 days, dose-response 10 μM to 0.94 nM; for inhibition at 10 µM: read-out: percent value in parentheses beside EC50 >10 μM. The class given is cell-based.

Assay [7] relates to IL-6. Description: IL-6 inhibition in LPS-stimulated human peripheral blood mononuclear cells (HTRF).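 For all read-outs here: IL-6 detected by HTRF with an XL665- and Cryptate-labelled anti-IL-6 antibody pair, samples run in duplicate, EC50 obtained from a four-parameter Levenberg-Marquardt curve fit.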 The class given is cell-based. Particulars: Homo sapiens, PBMC; for pEC50: Table 9, huPBMCs, LPS 50 ng/mL, 22 hours, dose-response starting from 10 μM; for inhibition at 10 µM: read-out: percent value in parentheses beside EC50 >10 μM.
Experimental: After 22 hour incubation, a mixture of anti-IL6 XL665 and anti-IL-6 Cryptate diluted in reconstitution buffer (Catalog #62IL6PEC, Cisbio Inc., Bedford, Mass.) was added to each well. […] All samples were processed in duplicate. […] EC50 was determined using software generated by Dotmatics Limited (Windhill Bishops Stortford Herts, UK) using the Levenberg-Marquardt 4 parameter fitting procedure with finite different gradients.
The mark [8] stands for this setting: SH-SY5Y cells, overnight (16-18 h) exposure.

pEC50: −log10 of the molar value. Where two headings read alike, the source gives them in different places. Some results are limits rather than exact numbers.

In general, pEC50 refers to −log10 of the EC50, conventionally taken in molar units.

Chain of recombinant GSK3β kinase (P49841 whole entry): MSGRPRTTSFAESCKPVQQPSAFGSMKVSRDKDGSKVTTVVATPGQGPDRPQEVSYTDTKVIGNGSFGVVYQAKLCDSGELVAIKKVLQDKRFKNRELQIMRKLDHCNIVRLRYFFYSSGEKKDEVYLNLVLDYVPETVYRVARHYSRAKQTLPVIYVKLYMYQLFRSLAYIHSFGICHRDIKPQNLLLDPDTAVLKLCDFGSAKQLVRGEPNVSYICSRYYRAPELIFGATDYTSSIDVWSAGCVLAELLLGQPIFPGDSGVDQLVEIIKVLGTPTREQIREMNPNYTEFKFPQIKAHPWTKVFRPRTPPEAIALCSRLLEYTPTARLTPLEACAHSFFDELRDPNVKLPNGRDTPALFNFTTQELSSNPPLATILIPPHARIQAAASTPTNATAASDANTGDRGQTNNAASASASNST

For `COC(=O)CN1CCC(C(=O)Nc2cc3cc(-c4cnn(C)c4)ccc3cn2)CC1` [Compound 334, Methyl 2-(4-((6-(1-methyl-1H-pyrazol-4-yl)isoquinolin-3-yl)carbamoyl)piperidin-1-yl)acetate], the pEC50 in assay [1] is 6.10; in assay [2], 8.80; in assay [3], 7.33; in assay [4] (setting [8]), 6.09; in assay [5], 5.13; in assay [6], 7.20. The pEC50 in assay [7] is 6.58.

On to `Cn1cc(-c2ccc3cnc(NC(=O)C4CCN(Cc5ccccc5)CC4)cc3c2)cn1` [Compound 335, 1-Benzyl-N-(6-(1-methyl-1H-pyrazol-4-yl)isoquinolin-3-yl)piperidine-4-carboxamide], for which the pEC50 is 6.00 in assay [1]; 8.42 in assay [2]; 7.15 in assay [3]; 6.54 in assay [4] (setting [8]); 5.95 in assay [5]; 6.95 in assay [6]. The pEC50 in assay [7] is 6.40.

With `Cn1cc(-c2ccc3cnc(NC(=O)C4CCN(C(=O)CN5CCCC5)CC4)cc3c2)cn1` [Compound 336, N-(6-(1-Methyl-1H-pyrazol-4-yl)isoquinolin-3-yl)-1-(2-(pyrrolidin-1-yl)acetyl)piperidine-4-carboxamide], the pEC50 in assay [1] is 6.40; in assay [2] it was 8.54; in assay [3], 7.08; in assay [4] (setting [8]), 6.09; in assay [5], 6.29; in assay [6] it was under 5.00. In addition, the negative-log EC50 (pEC50) in assay [7] was 6.24. The inhibition at 10 µM in assay [6] was 38.4%.

As to `Cn1cc(-c2ccc3cnc(NC(=O)[C@@H]4CCCCN4)cc3c2)cn1` [Compound 340, (S)—N-(6-(1-Methyl-1H-pyrazol-4-yl)isoquinolin-3-yl)piperidine-2-carboxamide], the pEC50 in assay [1] is 6.03; in assay [2], 8.72; in assay [3], 6.59; in assay [4] (setting [8]), 5.64; in assay [5] it was 5.65; in assay [6], 6.38. Moreover, the pEC50 in assay [7] is 6.25.

For `C[C@H]1COCCN1CC(=O)Nc1cc2cc(-c3cnn(C)c3)ccc2cn1` [Compound 341, (S)—N-(6-(1-Methyl-1H-pyrazol-4-yl)isoquinolin-3-yl)-2-(3-methylmorpholino)acetamide], the pEC50 was 5.39 in assay [1]; 8.25 in assay [2]; 7.05 in assay [3]; 5.80 in assay [4] (setting [8]); under 5.00 in assay [5]; 5.62 in assay [6]. Moreover, the pEC50 in assay [7] was under 5.00. For the same compound, the inhibition at 10 µM in assay [5] is 33.9%; in assay [7], 46.1%.

With `C[C@@H]1COCCN1CC(=O)Nc1cc2cc(-c3cnn(C)c3)ccc2cn1` [Compound 342, (R)—N-(6-(1-Methyl-1H-pyrazol-4-yl)isoquinolin-3-yl)-2-(3-methylmorpholino)acetamide], the pEC50 is 5.14 in assay [1]; 8.19 in assay [2]; 6.86 in assay [3]; 5.44 in assay [4] (setting [8]); under 5.00 in assay [5]; 6.02 in assay [6]. Further, in assay [7], the negative logarithm of the EC50 (pEC50) is 5.38. Besides, in assay [5], the inhibition at 10 µM was determined as 40%.

As for `C[C@H]1CN(CC(=O)Nc2cc3cc(-c4cnn(C)c4)ccc3cn2)CCO1` [Compound 343, (S)—N-(6-(1-Methyl-1H-pyrazol-4-yl)isoquinolin-3-yl)-2-(2-methylmorpholino)acetamide], the pEC50 in assay [1] is 5.45; in assay [2] it was 8.00; in assay [3], 7.15; in assay [4] (setting [8]), 5.62; in assay [5], 5.10; in assay [6] it was 6.35. In addition, the pEC50 in assay [7] is under 5.00. Besides, the inhibition at 10 µM in assay [7] was 47.4%.

Take `C[C@@H]1CN(CC(=O)Nc2cc3cc(-c4cnn(C)c4)ccc3cn2)C[C@H](C)O1` [Compound 344, 2-((2R,6S)-2,6-Dimethylmorpholino)-N-(6-(1-methyl-1H-pyrazol-4-yl)isoquinolin-3-yl)acetamide]: the pEC50 in assay [1] was 5.26; in assay [2], 7.98; in assay [3], 6.76; in assay [4] (setting [8]) it was 5.46; in assay [5], 5.11; in assay [6] it was under 5.00. The same compound had a pEC50 in assay [7] of 5.04. Further, the inhibition at 10 µM in assay [6] was 24.3%.

For the compound `Cn1cc(-c2ccc3cnc(NC(=O)CN4C[C@@H]5C[C@H]4CO5)cc3c2)cn1` [Compound 345, 2-((1S,4S)-2-Oxa-5-azabicyclo[2.2.1]heptan-5-yl)-N-(6-(1-methyl-1H-pyrazol-4-yl)isoquinolin-3-yl)acetamide], the pEC50 in assay [1] is 5.67; in assay [2], 8.40; in assay [3] it was 7.59; in assay [4] (setting [8]), 6.11; in assay [5], 5.51; in assay [6], under 5.00. In assay [7], this compound showed a pEC50 of 5.38. Moreover, in assay [6], the inhibition at 10 µM is 38%.

Regarding `Cn1cc(-c2ccc3cnc(NC(=O)CN4C[C@H]5C[C@@H]4CO5)cc3c2)cn1` [Compound 346, 2-((1R,4R)-2-Oxa-5-azabicyclo[2.2.1]heptan-5-yl)-N-(6-(1-methyl-1H-pyrazol-4-yl)isoquinolin-3-yl)acetamide], the pEC50 in assay [1] is 5.36; in assay [2], 8.00; in assay [3], 7.08; in assay [4] (setting [8]), 5.74; in assay [5] it was 5.01; in assay [6], 6.02. Besides, the pEC50 in assay [7] is 5.03.

On to `Cn1cc(-c2ccc3cnc(NC(=O)CN4C5CCC4COC5)cc3c2)cn1` [Compound 347, 2-(3-Oxa-8-azabicyclo[3.2.1]octan-8-yl)-N-(6-(1-methyl-1H-pyrazol-4-yl)isoquinolin-3-yl)acetamide], for which the pEC50 was 5.02 in assay [1]; 7.98 in assay [2]; 6.78 in assay [3]; 5.36 in assay [4] (SH-SY5Y); under 5.00 in assay [5]; 5.28 in assay [6]. Moreover, the pEC50 in assay [7] was under 5.00. For the same compound, the figures for the inhibition at 10 µM in assay [5] and in assay [7] were 48.5% and 4.5%, respectively.

With `C[C@@H](C(=O)Nc1cc2cc(-c3cnn(C)c3)ccc2cn1)N1CCOCC1` [Compound 348, (S)—N-(6-(1-Methyl-1H-pyrazol-4-yl)isoquinolin-3-yl)-2-morpholinopropanamide], the inhibition at 10 µM in assay [1] (SW480, read-out: percent inhibition at 10 μM) was determined as 36.9%; in assay [5] it was 22.4%; in assay [7], 19%. For the same compound, the pEC50 in assay [1] is under 5.00; in assay [2] it was 7.11; in assay [3], 6.66; in assay [4] (setting [8]), 5.70; in assay [5] it was under 5.00; in assay [6] it was 5.84. The compound further showed a pEC50 in assay [7] of under 5.00.

Take `Cn1cc(-c2ccc3cnc(NC(=O)CC4CNCCO4)cc3c2)cn1` (centres unmarked) [Compound 349, N-(6-(1-Methyl-1H-pyrazol-4-yl)isoquinolin-3-yl)-2-(morpholin-2-yl) acetamide]: the pEC50 in assay [1] was 6.15; in assay [2], 8.19; in assay [3], 7.18; in assay [4] (setting [8]) it was 6.45; in assay [5], 6.15; in assay [6], 6.84. Also, the pEC50 in assay [7] was 6.51.

Turning to `CN1CCOC(CC(=O)Nc2cc3cc(-c4cnn(C)c4)ccc3cn2)C1` (centres unmarked) [Compound 350, N-(6-(1-Methyl-1H-pyrazol-4-yl)isoquinolin-3-yl)-2-(4-methylmorpholin-2-yl)acetamide], the pEC50 in assay [1] is 6.00; in assay [2], 8.21; in assay [3], 7.48; in assay [4] (setting [8]), 6.38; in assay [5] it was 5.97; in assay [6], 7.00. For the same compound, the pEC50 in assay [7] was 6.24.

Turning to `CCN1CCN(CC(=O)Nc2cc3cc(-c4cnn(C)c4)ccc3cn2)CC1` [Compound 351, 2-(4-Ethylpiperazin-1-yl)-N-(6-(1-methyl-1H-pyrazol-4-yl)isoquinolin-3-yl) acetamide], the pEC50 is 5.60 in assay [1]; 7.87 in assay [2]; 6.89 in assay [3]; 6.07 in assay [4] (setting [8]); 5.16 in assay [5]; under 5.00 in assay [6]. For the same compound, the pEC50 in assay [7] is 5.52. Moreover, the inhibition at 10 µM in assay [6] was determined as 38.8%.

Turning to `CC(C)N1CCN(CC(=O)Nc2cc3cc(-c4cnn(C)c4)ccc3cn2)CC1` [Compound 352, 2-(4-Isopropylpiperazin-1-yl)-N-(6-(1-methyl-1H-pyrazol-4-yl)isoquinolin-3-yl)acetamide], the pEC50 is 5.53 in assay [1]; 7.67 in assay [2]; 6.96 in assay [3]; 5.89 in assay [4] (setting [8]); 5.07 in assay [5]; 5.88 in assay [6]. The compound further gave a pEC50 in assay [7] of 5.30.

The values are drawn from patent US10287267B2, “Isoquinolin-3-yl carboxamides and preparation and use thereof” (Samumed, LLC, priority 2016, dated 2019).
